According to ChEMBL document CHEMBL3301361, “Experimental in vitro DMPK and physicochemical data on a set of publicly disclosed compounds”:
In brackets after ≈: the same amount, converted by molar mass.

How the values were obtained:
in vitro [1] = conditions: mouse, plasma
in vitro [2] = conditions: human, plasma
in vitro [3] = conditions: SD, HW or BN, rat, plasma
physchem [4] = conditions: pH 7.4 buffer
physchem [5] = conditions: octan-1-ol/water

| SMILES | fraction unbound at 5 h (in vitro [1]) | fraction unbound at 5 h (in vitro [2]; PPB) | fraction unbound at 5 h (in vitro [3]) | further results |
| --- | --- | --- | --- | --- |
| O=c1c2cc(-c3ccc(Cl)cc3)oc2ccn1-c1ccc2c(cnn2CCN2CCCC2)c1 | 0.0043 | – | – | – |
| C/C=C/c1ccc(Oc2nnnn2-c2ccc(C(N)=O)cc2)c(OC)c1 | 0.0428 | – | – | fraction unbound at 5 h (in vitro [2]): 0.0268 |
| NC(=O)c1ccc(-n2nnnc2Oc2ccc(Br)cc2)cc1 | 0.0854 | – | 0.0872 | – |
| N#Cc1c(-c2ccc(-c3ccccc3OC(F)(F)F)cc2)nc2ccncc2c1O | 0.0013 | – | – | solubility thermodynamic (physchem [4]): 3.3 µM (≈ 1.34 µg/mL); logD (physchem [5]; pH 7.4, LogD7.4): 3.45 |
| N#CCOc1ccccc1-c1ccc(-c2nc3ccncc3c(O)c2C#N)cc1 | 0.0149 | 0.0011 | – | – |
| N#Cc1c(-c2ccc(-c3ccccc3Cl)cc2)nc2ccncc2c1O | 0.0022 | 0.0008 | – | – |
| Cc1cc(-c2ccc(-c3nc4ccncc4c(O)c3C#N)cc2)ccn1 | 0.013 | 0.0041 | – | logD (physchem [5]; pH 7.4, LogD7.4): 1.6 |
| Cc1nn(C)c(C)c1-c1ccc(-c2nc3ccncc3c(O)c2C#N)cc1 | 0.0343 | – | – | – |
| COCC#Cc1cccc(C2(c3ccc(OC(F)F)cc3)N=C(N)N3CC(F)(F)CN=C32)c1 (centres undefined) | 0.013 | 0.0111 | – | – |
| Cc1nccn1-c1sc(Nc2cnccn2)nc1-c1cccc(C#N)c1 | 0.0335 | 0.0437 | 0.0437 | – |
| COc1cc(Nc2nc3c(c(COC4CCCC4)n2)COCC3)ccc1-n1cnc(C)c1 | 0.0149 | – | 0.0205 | – |
| CCC#Cc1cncc(-c2ccc3c(c2)C2(N=C(C)C(N)=N2)[C@]2(CC[C@H](OC)CC2)C3)c1 (some centres undefined) | 0.02 | – | – | – |
| NC1=NC(c2ccnc(C(F)(F)F)c2)(c2ccc(F)c(-c3cncnc3)c2)c2cccc(F)c21 (centres undefined) | 0.0409 | 0.0293 | – | – |
| CC#Cc1cncc(-c2cccc(C3(c4cc(C)c(OC)c(C)c4)N=C(C)C(N)=N3)c2)c1 (centres undefined) | 0.006 | 0.002 | – | – |
| CCCN(c1cccc(C#N)c1)P(=O)(c1ccccc1)c1ccccc1 | 0.0467 | – | 0.0633 | fraction unbound at 5 h (in vitro [2]): 0.0056 |
| C[C@H](c1ccc(F)cc1CCCC(=O)O)N(c1cc(F)ccc1F)S(=O)(=O)c1ccc(Cl)cc1 | 0.005 | 0.001 | – | logD (physchem [5]; pH 7.4, LogD7.4): 3.1 |
| O=C1Nc2cc(C(F)(F)F)ccc2C1(O)c1cc(Cl)ccc1O (centres undefined) | 0.0219 | – | 0.0111 | fraction unbound at 5 h (in vitro [2]): 0.0149 |

| SMILES | fraction unbound at 5 h (in vitro [1]) | fraction unbound at 5 h (in vitro [2]; PPB) | fraction unbound at 5 h (in vitro [3]) | further results |
| --- | --- | --- | --- | --- |
| Cn1c(-c2cccc(F)c2)nc2c(N)nc(C#CC3(O)CCCC3)nc21 | 0.0752 | 0.119 | – | – |
| c1cncc(Nc2ncc(-c3ccncn3)c(-c3ccco3)n2)c1 | 0.16 | 0.139 | 0.139 | – |
| O=c1[nH]c2cc(C(F)(F)F)ccc2n1-c1cc(C(F)(F)F)ccc1O | 0.0021 | – | 0.0011 | – |
| OC1(c2ccc(Cl)cc2)CCN(Cc2c[nH]c3ccccc23)CC1 | 0.0872 | – | – | solubility thermodynamic (physchem [4]): 562 µM (≈ 192 µg/mL); logD (physchem [5]; pH 7.4): 2.25 |
| C1Cc2[nH]nc(-c3nnn[nH]3)c2C1 | 0.371 | – | 0.072 | – |
| COc1cc(-n2nnc3cc(-c4ccc(Cl)cc4)sc3c2=O)ccc1N1CC[C@@H](O)C1 | 0.0021 | – | – | logD (physchem [5]; pH 7.4, LogD7.4): 3.15 |
| CCCn1c(=O)[nH]c2nc(-c3ccc(S(=O)(=O)N4CCN(Cc5ccc(Cl)cc5)CC4)cc3)[nH]c2c1=O | 0.0007 | – | 0.0006 | – |
| CC(C)Cc1c(C(=O)C(N)=O)c2c(OCC(=O)O)cccc2n1Cc1ccccc1 | 0.0366 | – | 0.0187 | fraction unbound at 5 h (in vitro [2]): 0.0313 |
| Fc1ccc(-c2c[nH]c(C3CCN(Cc4ccn(-c5ccc(C(F)(F)F)cc5)c4)CC3)n2)cc1 | 0.0023 | 0.0009 | – | – |
| Fc1ccc(-c2cc(C3CCN(Cc4ccn(-c5ccc(C(F)(F)F)cc5)c4)CC3)no2)cc1 | 0.0005 | – | – | – |
| O=C(CC1CCN(Cc2ccn(-c3ccc(C(F)(F)F)cc3)c2)CC1)NC(c1ccncc1)c1ccc(Cl)cc1 (centres undefined) | 0.0051 | 0.013 | – | – |
| c1ccc2nc(COc3ccc(-c4n[nH]cc4-c4ccncc4)cc3)ccc2c1 | 0.0013 | – | 0.0018 | – |
| COc1ccc(C2(c3ccc(F)c(-c4cccnc4F)c3)N=C(N)N(C)C2=O)cc1C (centres undefined) | 0.0081 | – | 0.0099 | – |
| COc1ccc(-c2cc(C(F)F)nn2-c2ccc(S(N)(=O)=O)cc2)cc1F [DERACOXIB] | 0.0268 | – | – | logD (physchem [5]; pH 7.4, LogD7.4): 2.8 |
| CCCn1c(=O)c2[nH]c(-c3cnn(Cc4cccc(C(F)(F)F)c4)c3)nc2n(CC)c1=O [GS 6201] | 0.001 | – | – | – |
| Cn1cc(-c2ccncc2)c(-c2ccc(OCc3ccc4ccccc4n3)cc2)n1 [MARDEPODECT] | 0.0039 | – | 0.0017 | – |
| CCCCCCC(=O)CCCCCC/C=C/C[C@@H](O)[C@H](O)[C@@](N)(CO)C(=O)O [MYRIOCIN] | 0.062 | – | 0.028 | – |

More lines, main results first:

| fraction unbound at 5 h (in vitro [1]) | fraction unbound at 5 h (in vitro [2]; PPB) | fraction unbound at 5 h (in vitro [3]) | SMILES | further results |
| --- | --- | --- | --- | --- |
| 0.0039 | – | – | CC(C)[C@@H]1CC[C@@H](C)C[C@@H]1P(=O)(c1ccccc1)c1ccccc1 | – |
| 0.0321 | 0.0179 | – | Nc1scc2c(C(=O)NC3CC3)nn(-c3ccc(Cl)cc3)c(=O)c12 | – |
| 0.0219 | 0.0099 | – | CC(C)NC(=O)c1nn(-c2ccc(Cl)cc2)c(=O)c2c(N)scc12 | – |
| 0.151 | 0.139 | 0.139 | Cc1cc(C)c(S(=O)(=O)NCc2ccncc2)c(C)c1 | – |
| 0.0179 | – | 0.0139 | COc1ccc(S(=O)(=O)N2CC(C)N(S(=O)(=O)c3ccc(OC)cc3)CC2C)cc1 (centres undefined) | fraction unbound at 5 h (in vitro [2]): 0.0035 |
| 0.0139 | 0.03 | 0.0328 | CC(C)(C)OC(=O)NC[C@H]1CC[C@H](CNC(=O)c2cc(N3CCC(CCN4CC(O)C4)CC3)nc3ccccc23)CC1 | – |
| 0.197 | 0.0293 | – | Cc1[nH]c(C(=O)NC2CCN(c3ncc(C(=O)O)s3)CC2)c(Cl)c1Cl | – |
| 0.0005 | – | – | CC(C)Oc1ccc(-c2nc(-c3cccc4c(CCC(=O)O)c[nH]c34)no2)cc1Cl | – |
| 0.04 | 0.04 | 0.0447 | COc1ccc2cc(S(=O)(=O)N[C@H](CC(=O)N[C@H](Cc3ccc(CN4[C@H](C)CCC[C@@H]4C)cc3)C(=O)N(C)C(C)C)c3ccc4c(c3)OCO4)ccc2c1 | – |
| 0.11 | – | – | Nc1scc2c(C(=O)NC3CC3)nn(-c3ccc(F)cc3)c(=O)c12 | logD (physchem [5]; pH 7.4, LogD7.4): 2.8 |
| 0.201 | – | – | C[C@@H](CC(=O)OC(C)(C)C)NC(=O)C1=NOC(C(O)(C(F)(F)F)C(F)(F)F)C1 (some centres undefined) | – |
| 0.249 | 0.0836 | – | CN1C(=N)N[C@](C)(c2cc(-c3cccc(C#N)c3)cs2)CC1=O | – |
| 0.17 | 0.119 | – | CC#Cc1cncc(-c2csc([C@]3(C)CC(=O)N(C)C(N)=N3)c2)c1 | – |
| 0.02 | 0.0191 | – | COc1cc(Nc2nc3c(c(Cc4ccccc4)n2)CN(CCO)CC3)ccc1-n1cnc(C)c1 | – |
| 0.262 | 0.0988 | 0.319 | c1ccc([C@@H]([C@H](c2ccccc2)N2CCCCC2)N2CCCCC2)cc1 | – |
| 0.0191 | 0.0447 | – | CC(C)S(=O)(=O)N(C)c1cc(C(=O)N[C@@H](Cc2ccccc2)[C@@H](N)CF)cc(NC[C@H]2C[C@@H]2C)n1 | – |

| fraction unbound at 5 h (in vitro [1]) | fraction unbound at 5 h (in vitro [2]; PPB) | fraction unbound at 5 h (in vitro [3]) | SMILES | further results |
| --- | --- | --- | --- | --- |
| 0.0928 | 0.299 | 0.11 | CCOc1cc(CN2CCC(Nc3nc4cc(S(N)(=O)=O)ccc4o3)CC2)cc(OCC)c1N | – |
| 0.016 | 0.0119 | – | CCNc1cc(C(=O)N[C@@H](Cc2ccccc2)[C@H](O)CNCc2cccc(C(F)(F)F)c2)c(F)c(N2CCCCS2(=O)=O)c1 | – |
| 0.0818 | 0.22 | 0.119 | CC(O)(C(=O)Nc1ccc(S(=O)(=O)N2CCCC2)cc1)C(F)(F)F (centres undefined) | – |
| 0.002 | 0.004 | – | CCCC[C@H](NC[C@@H]1Cc2cccc(c2)CCCCc2cc(cc(N(CCC)S(C)(=O)=O)c2)C(=O)N1)C(=O)NCC(C)C | – |
| 0.0251 | – | 0.0358 | Cc1nc(-c2c(F)cc(Cl)cc2-c2cnc([C@@H](C)NC(=O)[C@@](C)(O)C(F)(F)F)c(F)c2)no1 | – |
| 0.0171 | 0.0099 | – | C[C@H](NC(=O)Cc1cc(F)cc(F)c1)C(=O)NC1C(=O)N(C)c2ccccc2-c2ccccc21 (some centres undefined) | logD (physchem [5]; pH 7.4, LogD7.4): 3.6 |
| 0.0661 | 0.0909 | 0.0594 | CC(O)(C(=O)Nc1cccc(S(=O)(=O)c2ccccc2)c1)C(F)(F)F (centres undefined) | – |
| 0.0313 | 0.0358 | 0.0313 | O=C1CCc2cc(-c3cncc4ccccc34)ccc2N1 | – |
| 0.0581 | – | 0.028 | COc1cc(C(C)C)c(Oc2cnc(NC(CO)CO)nc2N)cc1I | – |
| 0.0119 | 0.003 | – | O=C(Nc1ccc(Cl)c(C(=O)Nc2cccnc2)c1)c1cccc(C(F)(F)F)c1 | – |
| 0.858 | 0.803 | 0.792 | CC(C)[C@H](O)C(=O)N[C@@H](C)C(=O)N[C@@H]1C(=O)N(C)CCc2ccccc21 | – |
| 0.0025 | 0.0021 | – | CCOc1cc2c(c(F)c1OCC)C(=N)N(CC(=O)c1cc(N3CCOCC3)c(OC)c(C(C)(C)C)c1)C2 [ATOPAXAR] | – |
| 0.11 | – | 0.0909 | CCC(CC)[C@@H](CO)NS(=O)(=O)c1ccc(Cl)s1 [GSI-136] | – |
| 0.19 | – | – | CC[C@H](Nc1ncnc2[nH]cnc12)c1nc2cccc(F)c2c(=O)n1-c1ccccc1 [IDELALISIB] | logD (physchem [5]; pH 7.4, LogD7.4): 2.72 |
| 0.0075 | – | 0.179 | CC(C)Cn1cnc2c(N)nc3ccccc3c21 [IMIQUIMOD] | solubility thermodynamic (physchem [4]): 63.1 µM (≈ 15.2 µg/mL); logD (physchem [5]; pH 7.4, LogD7.4): 2.52 |
